Experimental data reported in BindingDB's records for doi:10.1021/acs.jmedchem.0c00766 (Istituto Italiano Di Tecnologia, 2020).

Target: Serine-protein kinase ATM (Homo sapiens, UniProt Q13315)
Test: Inhibition of ATM (unknown origin) assessed as ATM-dependent phosphorylation using GST-p53 ser15 as substrate

Sequence of Serine-protein kinase ATM (Q13315 whole entry): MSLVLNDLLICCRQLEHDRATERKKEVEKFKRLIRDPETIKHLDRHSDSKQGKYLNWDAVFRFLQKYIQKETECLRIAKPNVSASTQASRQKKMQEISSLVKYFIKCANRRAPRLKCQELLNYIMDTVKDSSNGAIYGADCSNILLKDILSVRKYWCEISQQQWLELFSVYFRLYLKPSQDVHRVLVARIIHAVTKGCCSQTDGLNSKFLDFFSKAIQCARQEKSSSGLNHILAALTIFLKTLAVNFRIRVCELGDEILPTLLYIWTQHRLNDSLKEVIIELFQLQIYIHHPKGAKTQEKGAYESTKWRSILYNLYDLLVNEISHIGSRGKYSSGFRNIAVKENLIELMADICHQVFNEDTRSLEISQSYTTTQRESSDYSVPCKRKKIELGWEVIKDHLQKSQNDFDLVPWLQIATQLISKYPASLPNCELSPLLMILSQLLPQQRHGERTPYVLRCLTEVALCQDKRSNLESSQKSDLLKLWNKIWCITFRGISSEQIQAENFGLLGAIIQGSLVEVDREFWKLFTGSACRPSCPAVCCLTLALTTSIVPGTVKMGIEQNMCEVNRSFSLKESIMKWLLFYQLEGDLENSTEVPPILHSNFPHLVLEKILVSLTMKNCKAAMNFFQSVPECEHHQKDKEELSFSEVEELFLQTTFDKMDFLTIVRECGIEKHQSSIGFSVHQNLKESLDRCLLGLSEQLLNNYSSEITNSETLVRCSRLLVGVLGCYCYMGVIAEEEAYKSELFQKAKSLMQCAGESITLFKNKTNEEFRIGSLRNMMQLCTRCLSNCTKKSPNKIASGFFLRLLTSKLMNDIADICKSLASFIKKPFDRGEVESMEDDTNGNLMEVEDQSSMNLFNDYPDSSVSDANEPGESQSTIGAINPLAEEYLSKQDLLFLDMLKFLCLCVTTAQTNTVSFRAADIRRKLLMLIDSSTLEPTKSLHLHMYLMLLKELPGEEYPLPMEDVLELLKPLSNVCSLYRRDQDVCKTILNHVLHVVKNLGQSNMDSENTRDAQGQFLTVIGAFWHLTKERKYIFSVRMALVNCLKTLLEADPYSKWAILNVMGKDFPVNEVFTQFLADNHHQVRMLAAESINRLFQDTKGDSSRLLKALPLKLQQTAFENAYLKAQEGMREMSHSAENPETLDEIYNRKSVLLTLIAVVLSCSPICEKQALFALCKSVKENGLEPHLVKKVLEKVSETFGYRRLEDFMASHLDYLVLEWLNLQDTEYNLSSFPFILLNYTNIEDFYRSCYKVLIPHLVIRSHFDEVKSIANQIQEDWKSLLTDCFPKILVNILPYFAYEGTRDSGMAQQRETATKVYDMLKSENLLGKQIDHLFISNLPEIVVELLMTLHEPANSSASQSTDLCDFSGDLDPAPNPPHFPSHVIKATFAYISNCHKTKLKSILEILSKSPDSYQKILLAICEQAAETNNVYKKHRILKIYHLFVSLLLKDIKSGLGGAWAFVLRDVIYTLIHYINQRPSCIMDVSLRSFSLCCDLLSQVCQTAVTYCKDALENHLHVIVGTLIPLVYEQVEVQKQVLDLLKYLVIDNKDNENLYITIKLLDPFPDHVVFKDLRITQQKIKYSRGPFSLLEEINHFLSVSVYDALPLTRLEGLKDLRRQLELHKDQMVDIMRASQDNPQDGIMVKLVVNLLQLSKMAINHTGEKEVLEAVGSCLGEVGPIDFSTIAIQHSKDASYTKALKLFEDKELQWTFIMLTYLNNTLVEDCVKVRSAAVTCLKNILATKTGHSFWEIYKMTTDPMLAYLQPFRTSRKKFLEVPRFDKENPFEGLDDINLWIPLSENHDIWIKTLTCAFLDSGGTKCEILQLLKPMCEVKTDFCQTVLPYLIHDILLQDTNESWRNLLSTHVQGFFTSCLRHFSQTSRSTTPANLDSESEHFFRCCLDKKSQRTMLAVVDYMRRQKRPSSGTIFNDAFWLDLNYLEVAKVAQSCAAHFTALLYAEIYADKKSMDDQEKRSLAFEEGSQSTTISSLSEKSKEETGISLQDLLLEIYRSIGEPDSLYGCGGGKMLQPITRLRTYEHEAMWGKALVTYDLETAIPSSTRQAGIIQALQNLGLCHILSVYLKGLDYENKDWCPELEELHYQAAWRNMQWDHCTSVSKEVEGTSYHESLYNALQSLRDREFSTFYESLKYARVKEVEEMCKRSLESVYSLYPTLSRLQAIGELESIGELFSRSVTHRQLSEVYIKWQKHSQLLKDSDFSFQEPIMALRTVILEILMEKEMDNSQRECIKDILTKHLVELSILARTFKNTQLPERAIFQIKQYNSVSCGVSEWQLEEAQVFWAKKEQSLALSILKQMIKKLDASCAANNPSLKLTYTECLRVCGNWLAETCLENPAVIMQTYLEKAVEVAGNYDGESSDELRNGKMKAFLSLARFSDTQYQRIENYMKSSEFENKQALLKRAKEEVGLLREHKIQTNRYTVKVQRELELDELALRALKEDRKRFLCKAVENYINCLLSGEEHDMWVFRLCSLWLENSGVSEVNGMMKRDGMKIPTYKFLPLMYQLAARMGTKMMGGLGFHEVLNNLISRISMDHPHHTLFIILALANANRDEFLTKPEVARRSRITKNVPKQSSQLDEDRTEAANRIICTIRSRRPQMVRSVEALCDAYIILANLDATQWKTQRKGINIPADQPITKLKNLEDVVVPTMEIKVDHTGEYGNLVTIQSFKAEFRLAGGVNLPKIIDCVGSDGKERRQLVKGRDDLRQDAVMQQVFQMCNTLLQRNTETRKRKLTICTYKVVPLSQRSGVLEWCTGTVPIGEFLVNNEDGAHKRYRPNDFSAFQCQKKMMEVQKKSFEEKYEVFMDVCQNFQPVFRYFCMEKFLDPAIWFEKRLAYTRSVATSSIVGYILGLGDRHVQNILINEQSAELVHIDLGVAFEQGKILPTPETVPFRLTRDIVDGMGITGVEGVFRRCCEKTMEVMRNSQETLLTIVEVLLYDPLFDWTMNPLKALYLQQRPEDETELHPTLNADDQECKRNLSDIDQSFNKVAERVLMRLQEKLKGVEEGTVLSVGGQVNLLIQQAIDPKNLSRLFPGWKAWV

- IC50: 0.09 nM
Structure (SMILES): CC(C)n1c(=O)n(C)c2cnc3cc(F)c(-c4ccc(OCCCN5CCCCC5)nc4)cc3c21 [Azd-1390]
